Source: PMC8222713, “Variation of Two S3b Residues in KV4.1–4.3 Channels Underlies Their Different Modulations by Spider Toxin κ-LhTx-1” (Frontiers in Pharmacology, 2021)
Where a SMILES comes first, the peptide text is derived from it. Bridges are numbered along the chain shown (N, C = ends).

Experiments:
KV4.1/P282T mutant = assay: Whole-cell patch clamp, KV4.1/P282T in CHO-K1 cells; format: cell-based, mouse
Method: (§1) The cDNA of hKV1.1, hKV1.3, rKV1.4, hKV1.5, rKV2.1, hKV3.1–3.4, mKV4.1, rKV4.2, and rKV4.3 were subcloned in the eukaryotic expression vector pCDNA3.1 or pCMV-blank. Channel mutants were made by a site-directed mutation method. Briefly, a pair of oppositely directed primers with 15 bp overlap at their 5′ ends and the designed mutation site were used to amplify the parental channel plasmid, then the PCR mix was treated with DpnI to remove the template. 10 μL digestion mix was directly used to transform 100 μL DH5α chemical competent cells. The correct mutation made by this procedure was finally confirmed by DNA sequencing. CHO-K1 cells (ATCC® CCL-61™) were grown in DMEM-F12 mixed medium (1:1) supplemented with 10% FBS and maintained in standard conditions (saturated humidity, 37°C, 5% CO2). Channel plasmid was co-transfected with pEGFP-N1 (encodes the green fluoresence protein) into CHO-K1 cells using lipofectamine 2000 following the manufacturer’s instructions. 4–6 h after transfection, cells were seeded onto poly-lysine (PLL) coated coverslips, and 24–36 h later, transfected cells were ready for patch-clamp analysis. It should be note that KV4.2 and its mutants were also co-expressed with hKChIP1 to promote their functional expressions.
(§2) Whole-cell patch clamp recording was performed in an electrophysiology platform equipped with MultiClamp 700B amplifier and Axon Digidata 1550 AD/DA convertor (Axon Instruments, Irvine, CA, United States). Data were acquired using the pClamp software (Axon Instruments, Irvine, CA, United States). All experiments were performed at room temperature. The bath solution contains (in mM): 140 NaCl, 5 KCl, 1 MgCl2, 2 CaCl2, 10 glucose, and 10 HEPES (pH = 7.3). The pipette solution contains (in mM): 140 KCl, 2.5 MgCl2, 11 EGTA, and 10 HEPES (pH = 7.3). Series resistance was kept below 10 MΩ and compensated to 80%. The concentration–response curves were fitted by a Hill logistic equation to estimate the potency (IC50) of the toxin. The whole cell conductance (G) at each depolarizing voltage (V) was determined using the equation: G = I/(V−Vrev), where I and Vrev represents the current amplitude and the reversal potential, respectively. In the present study, Vrev for K^+ current is determined to be −85.61 mV using the Nernst equation. G-V curve was obtained by plotting the normalized G as a function of V and fitted by the Boltzmann equation: y = 1/{1 + exp [(Va−V)/K]}, in which Va, V, and K represents half-maximum activation voltage, test voltage and slope factor, respectively. The steady-state fast inactivation of KV4 channels was measured using a classical two-pulses protocol: cell was held at −120 mV, and a train of conditional voltages (−120–40 mV, in 10 mV increment, 1,000 ms) were applied to induce channel inactivation, followed by a +60 mV test pulse (300 ms) to assess the proportion of non-inactivated channels; the sweep interval was set to 10 s. Currents at the test pulse (I) were normalized to the maximum value (Imax) and plotted as a function of the conditional voltage (V), the curve was fitted by the Boltzmann equation: I/Imax = A + (1−A)/{1 + exp [(V−Vh)/K]}, where Vh is the half-maximum inactivation voltage, A represents the minimum channel availability, and K is the slope factor. Gating currents of KV4.1–4.3 channels were measured as previously reported ([Tilley et al., 2019]). Briefly, the ionic pore currents were abolished by replacing K^+ with NMDG^+ in the pipette solution, and 10 µM Cs^+ was present in the bath solution to occupy the selectivity filter of KV channels to prevent decay of the gating currents during recording.
(§3) Data were presented as MEAN ± SEM, n represents the number of separate experimental cells. Data were analyzed using the software Clampfit 10.5 (Axon Instruments, Irvine, CA, United States), Graphpad Prism 5.01 (GraphPad Software, La Jolla, CA, United States) and Excel 2010 (Microsoft Corporation, Redmond, WA, United States). […]

[1] = system: KV4.3 channel gating currents; assay: Gating current recording, KV4.3; format: cell-based, rat
Method: (§4) The cDNA of hKV1.1, hKV1.3, rKV1.4, hKV1.5, rKV2.1, hKV3.1–3.4, mKV4.1, rKV4.2, and rKV4.3 were subcloned in the eukaryotic expression vector pCDNA3.1 or pCMV-blank. Channel mutants were made by a site-directed mutation method. Briefly, a pair of oppositely directed primers with 15 bp overlap at their 5′ ends and the designed mutation site were used to amplify the parental channel plasmid, then the PCR mix was treated with DpnI to remove the template. 10 μL digestion mix was directly used to transform 100 μL DH5α chemical competent cells. The correct mutation made by this procedure was finally confirmed by DNA sequencing. […] 4–6 h after transfection, cells were seeded onto poly-lysine (PLL) coated coverslips, and 24–36 h later, transfected cells were ready for patch-clamp analysis. […]
(§5) Whole-cell patch clamp recording was performed in an electrophysiology platform equipped with MultiClamp 700B amplifier and Axon Digidata 1550 AD/DA convertor (Axon Instruments, Irvine, CA, United States). […] The whole cell conductance (G) at each depolarizing voltage (V) was determined using the equation: G = I/(V−Vrev), where I and Vrev represents the current amplitude and the reversal potential, respectively. In the present study, Vrev for K^+ current is determined to be −85.61 mV using the Nernst equation. […] Gating currents of KV4.1–4.3 channels were measured as previously reported ([Tilley et al., 2019]). […]

KV4.1/F280V mutant = assay: Whole-cell patch clamp, KV4.1/F280V in CHO-K1 cells; format: cell-based, mouse; conditions: +30 mV, n = 5
Method: as §4, §5

[2] = system: KV4.1/282TD (P282T/K283D double mutant); assay: Whole-cell patch clamp, KV4.1/282TD in CHO-K1 cells; format: cell-based, mouse
Method: as §1, §2, §3

[3] = system: KV4.2/280PK (T280P/D281K double mutant); assay: Whole-cell patch clamp, KV4.2/280PK (with hKChIP1) in CHO-K1 cells; format: cell-based, rat
Method: as §1, §2, §3

KV3.4 channel (hKV3.4) = assay: Whole-cell patch clamp selectivity, KV3.4; format: cell-based, human; conditions: KV3.4, 10 µM, n = 5
Method: as §4, §5

[4] = system: KV4.1 channel gating currents; assay: Gating current recording, KV4.1; format: cell-based, mouse; conditions: KV4.1, n = 5–6
Method: as §4, §5

KV4.2/277LV/AA mutant = assay: Whole-cell patch clamp, KV4.2/277LV/AA (with hKChIP1) in CHO-K1 cells; format: cell-based, rat; conditions: KV4.2/277LV/AA at Va depolarizing voltage, n = 5–7
Method: as §4, §5

[5] = system: KV4.3/275FVPK chimeric channel; assay: Whole-cell patch clamp, KV4.3/275FVPK chimera in CHO-K1 cells; format: cell-based, rat; conditions: mean ± SEM
Method: as §1, §2, §3

[6] = system: KV4.1/280VMTN chimeric channel; assay: Whole-cell patch clamp, KV4.1/280VMTN chimera in CHO-K1 cells; format: cell-based, mouse; conditions: mean ± SEM
Method: as §1, §2, §3

[7] = 10 μM κ-LhTx-1, G-V, mean ± SEM, n = 6
[8] = 10 μM κ-LhTx-1, two-pulse protocol, mean ± SEM, n = 6
[9] = Va shift by 10 μM κ-LhTx-1 vs control, mean ± SEM
[10] = Vh shift by 10 μM κ-LhTx-1 vs control, mean ± SEM
[11] = 10 μM κ-LhTx-1, G-V, mean ± SEM, n = 5
[12] = 10 μM κ-LhTx-1, two-pulse protocol, mean ± SEM, n = 5
[13] = 10 μM κ-LhTx-1, two-pulse protocol, n = 5
[14] = Va shift by 10 μM κ-LhTx-1 vs control
[15] = Vh shift by 10 μM κ-LhTx-1 vs control
[16] = inhibition ratio at +100 mV, 10 μM

## CC[C@H](C)[C@@H]1NC(=O)[C@H](CCC(N)=O)NC(=O)[C@@H]2CSSC[C@@H]3NC(=O)[C@H](CC(C)C)NC(=O)[C@H](CC(N)=O)NC(=O)[C@H](CCSC)NC(=O)[C@H](Cc4c[nH]c5ccccc45)NC(=O)[C@H](CO)NC(=O)[C@H](C)NC(=O)[C@@H](NC(=O)[C@H](CCC(=O)O)NC(=O)[C@H](CCC(N)=O)NC(=O)[C@H](C)NC(=O)[C@H](CC(=O)O)NC(=O)[C@@H](N)CCC(=O)O)CSSC[C@H](NC(=O)[C@H](CSSC[C@@H](C(=O)N[C@@H](CCCCN)C(=O)N[C@@H](Cc4ccc(O)cc4)C(=O)N[C@@H](CCCCN)C(=O)N[C@@H](CC(C)C)C(N)=O)NC(=O)[C@H](Cc4c[nH]c5ccccc45)NC1=O)NC(=O)[C@H](CCCCN)NC(=O)[C@H](CCCCN)NC(=O)[C@H](CCC(=O)O)NC(=O)CNC3=O)C(=O)N[C@@H](CCC(=O)O)C(=O)NCC(=O)N[C@@H](Cc1ccc(O)cc1)C(=O)N[C@@H](C(C)C)C(=O)N2 [κ-LhTx-1] (H-EDAQECASWMNLCGEKKCCEGYVCQIWCKYKL-NH2; disulfide 6-19, 13-24, 18-28 (inferred); N-terminus and C-terminus assumed)
KV4.1/P282T mutant; [7]
  Va (steady-state activation): 52.55 ± 1.38 mV
  k, slope factor (steady-state activation): 18.09 ± 0.43 mV
KV4.1/P282T mutant; [8]
  Vh (steady-state inactivation): -29.12 ± 1.84 mV
  k, slope factor (steady-state inactivation): 10.73 ± 0.41 mV
KV4.1/P282T mutant; 10 μM, close to values of KV4.2/KV4.3
  ∆Va and inhi%(min) vs wild-type KV4.1: significantly reduced compared with those for KV4.1
KV4.1/P282T mutant; [9]
  ∆Va (steady-state activation): 52.58 ± 1.86 mV
KV4.1/P282T mutant; [10]
  ∆Vh (steady-state inactivation): 26.75 ± 2.85 mV
[1]; KV4.3, holding −100 mV, 20 ms to +30 mV, n = 5–6
  inhibition of gating charge (Q) movement, 500 nM vs 10 µM: inhibited essentially the same proportion of gating charge movement
[1]; KV4.3, n = 5–6
  gating current inhibition: inhibited the gating currents
KV4.1/F280V mutant
  potency vs wild-type KV4.1: only slightly reduced κ-LhTx-1 potency
[2]; [11]
  Va (steady-state activation): 29.00 ± 0.52 mV
  k, slope factor (steady-state activation): 25.50 ± 0.51 mV
[2]; [12]
  Vh (steady-state inactivation): -56.22 ± 2.80 mV
  k, slope factor (steady-state inactivation): 5.95 ± 0.32 mV
[2]; 10 μM, +100 mV
  inhi%(min): approaching zero
[2]; [9]
  ∆Va (steady-state activation): 37.82 ± 2.83 mV
[2]; [10]
  ∆Vh (steady-state inactivation): 3.38 ± 3.15 mV
[3]; 10 μM
  ∆Va and inhi%(min) vs KV4.1: not significantly different from those in KV4.1
[3]; [7]
  Va (steady-state activation): 82.17 ± 1.67 mV
  k, slope factor (steady-state activation): 13.22 ± 1.15 mV
[3]; [12]
  Vh (steady-state inactivation): -9.93 ± 2.94 mV
  k, slope factor (steady-state inactivation): 11.46 ± 1.10 mV
[3]; [9]
  ∆Va (steady-state activation): 102.8 ± 3.22 mV
[3]; [10]
  ∆Vh (steady-state inactivation): 43.66 ± 3.77 mV
KV3.4 channel (hKV3.4)
  effect on currents: did not remarkably affect the currents
[4]
  gating current inhibition: inhibited the gating currents
KV4.2/277LV/AA mutant
  effect of mutation on toxin inhibition: profoundly weakened the effect
[5]; 10 μM κ-LhTx-1, G-V, n = 5
  Va (steady-state activation): 93.50 ± 2.00 mV
  k, slope factor (steady-state activation): 17.66 ± 1.15 mV
[5]; [13]
  Vh (steady-state inactivation): -9.28 ± 5.57 mV
  k, slope factor (steady-state inactivation): 16.78 ± 3.11 mV
[5]; [14]
  ∆Va (steady-state activation): 94.81 ± 2.45 mV
[5]; [15]
  ∆Vh (steady-state inactivation): 43.34 ± 5.46 mV
[5]; [16]
  inhi%(min): 65.91 ± 3.36%
[6]; 10 μM κ-LhTx-1, G-V, n = 5
  Va (steady-state activation): 58.61 ± 1.63 mV
  k, slope factor (steady-state activation): 19.00 ± 0.81 mV
[6]; [13]
  Vh (steady-state inactivation): -44.55 ± 2.07 mV
  k, slope factor (steady-state inactivation): 9.86 ± 1.33 mV
[6]; [14]
  ∆Va (steady-state activation): 61.44 ± 1.98 mV
[6]; [15]
  ∆Vh (steady-state inactivation): 13.52 ± 2.24 mV
[6]; [16]
  inhi%(min): −2.82 ± 3.37%
